# According to patent US5869494A, “Uses for barbituric acid analogs” (priority 1997, dated 1999):
# Assays:
# Test in all cases: NCI tumor cell line screen (SRB assay)
# Format in all cases: cell-based
# Parameters in all cases: activity: dose or concentration left out as unconfirmed
# ACHN = conditions: Homo sapiens, read-out: PERCENT GROWTH
# Protocol: (§1) The National Cancer Institute carried out the studies at the direction of the present inventor.
# (§2) In the tests, the National Cancer Institute used the SRB (sulforhodamine B) assay as described by Skehan et al., (Journal of the National Cancer Institute, 82:13, Jul. 4, 1990, 1107-1112). Briefly, the assay is as follows. TCA-fixed cells were stained for 30 minutes with 0.4% (wt/vol) SRB dissolved in 1% acetic acid. At the end of the staining period, SRB was removed and cultures were quickly rinsed four times with 1% acetic acid to remove unbound dye. The acetic acid was poured directly into the culture wells from a beaker. […] Residual wash solution was removed by sharply flicking plates over a sink, which ensured the complete removal of rinsing solution. […] After being rinsed, the cultures were air dried until no standing moisture was visible. Bound dye was solubilized with 10 mM unbuffered Tris base (pH 10.5) for 5 minutes on a gyratory shaker.
# (§3) Optical density (OD) was read in either a UVmax microtiter plate reader (Molecular Devices, Menlo Park, Calif.) or a Beckman DU-70 spectrophotometer. For maximum sensitivity, OD was measured at 564 nm. Because readings were linear with dye concentrations only below 1.8 OD units, however, suboptimal wavelengths were generally used, so that all samples in an experiment remained within the linear OD range. With most cell lines, wavelengths of approximately 490-530 nm worked well for this purpose.
# (§4) Nine different non-small cell lung carcinoma cell lines, six different colon carcinoma cell lines, six different CNS (central nervous system) carcinoma cell lines, seven different melanoma cell lines, six different ovarian carcinoma cell lines, and eight different renal carcinoma cell lines were tested.
# HCC-2998 = conditions: Homo sapiens, read-out: PERCENT GROWTH
# Protocol: as §1, §2, §3, §4
# HT29 = conditions: Homo sapiens, HT-29, read-out: PERCENT GROWTH
# Protocol: as §1, §2, §3, §4
# IGROV1 = conditions: Homo sapiens, IGROV-1, read-out: PERCENT GROWTH
# Protocol: as §1, §2, §3, §4
# KM12 = conditions: Homo sapiens, read-out: PERCENT GROWTH
# Protocol: as §1, §2, §3, §4
# NCI-H226 = conditions: Homo sapiens, read-out: PERCENT GROWTH
# Protocol: as §1, §2, §3, §4
# NCI-H23 = conditions: Homo sapiens, read-out: PERCENT GROWTH
# Protocol: as §1, §2, §3, §4
# NCI-H460 = conditions: Homo sapiens, read-out: PERCENT GROWTH
# Protocol: as §1, §2, §3, §4
# NCI-H522 = conditions: Homo sapiens, read-out: PERCENT GROWTH
# Protocol: as §1, §2, §3, §4
# OVCAR-8 = conditions: Homo sapiens, read-out: PERCENT GROWTH
# Protocol: as §1, §2, §3, §4
# SF-268 = conditions: Homo sapiens, read-out: PERCENT GROWTH
# Protocol: as §1, §2, §3, §4
# SF-295 = conditions: Homo sapiens, read-out: PERCENT GROWTH
# Protocol: as §1, §2, §3, §4
# SNB-19 = conditions: Homo sapiens, read-out: PERCENT GROWTH
# Protocol: as §1, §2, §3, §4
# U251 = conditions: Homo sapiens, U-251, read-out: PERCENT GROWTH
# Protocol: as §1, §2, §3, §4
# UACC-257 = conditions: Homo sapiens, read-out: PERCENT GROWTH
# Protocol: as §1, §2, §3, §4
# UACC-62 = conditions: Homo sapiens, read-out: PERCENT GROWTH
# Protocol: as §1, §2, §3, §4
# UO-31 = conditions: Homo sapiens, read-out: PERCENT GROWTH
# Protocol: as §1, §2, §3, §4
structure (smiles),measurement,setting,value
"CCCCN1C(=O)CC(=O)N(CCCC)C1=S [Compound C1, 4,6(1H, 5H)-pyrimidinedione, 1,3-dibutyldihydro-2-thioxo]",activity,ACHN; 10^-3.0 Molar,-3%
same,activity at 100 µM,ACHN; 10^-4.0 Molar,89%
same,activity at 10 µM,ACHN; 10^-5.0 Molar,107%
same,activity at 1 µM,ACHN; 10^-6.0 Molar,105%
same,activity at 0.1 µM,ACHN; 10^-7.0 Molar,99%
same,activity,HCC-2998; 10^-3.0 Molar,-82%
same,activity at 10 µM,HCC-2998; 10^-5.0 Molar,109%
same,activity at 0.1 µM,HCC-2998; 10^-7.0 Molar,113%
same,activity,HT29; 10^-3.0 Molar,-96%
same,activity at 100 µM,HT29; 10^-4.0 Molar,76%
same,activity at 1 µM,HT29; 10^-6.0 Molar,103%
same,activity at 0.1 µM,HT29; 10^-7.0 Molar,102%
same,activity,IGROV1; 10^-3.0 Molar,-85%
same,activity at 100 µM,IGROV1; 10^-4.0 Molar,88%
same,activity at 10 µM,IGROV1; 10^-5.0 Molar,103%
same,activity at 1 µM,IGROV1; 10^-6.0 Molar,107%
same,activity at 0.1 µM,IGROV1; 10^-7.0 Molar,105%
same,activity,KM12; 10^-3.0 Molar,-90%
same,activity at 100 µM,KM12; 10^-4.0 Molar,76%
same,activity at 10 µM,KM12; 10^-5.0 Molar,102%
same,activity at 1 µM,KM12; 10^-6.0 Molar,101%
same,activity at 0.1 µM,KM12; 10^-7.0 Molar,101%
same,activity,NCI-H226; 10^-3.0 Molar,-39%
same,activity at 100 µM,NCI-H226; 10^-4.0 Molar,90%
same,activity at 10 µM,NCI-H226; 10^-5.0 Molar,106%
same,activity at 1 µM,NCI-H226; 10^-6.0 Molar,100%
same,activity at 0.1 µM,NCI-H226; 10^-7.0 Molar,96%
same,activity,NCI-H23; 10^-3.0 Molar,-62%
same,activity at 100 µM,NCI-H23; 10^-4.0 Molar,63%
same,activity at 10 µM,NCI-H23; 10^-5.0 Molar,98%
same,activity at 1 µM,NCI-H23; 10^-6.0 Molar,103%
same,activity at 0.1 µM,NCI-H23; 10^-7.0 Molar,97%
same,activity,NCI-H460; 10^-3.0 Molar,-54%
same,activity at 100 µM,NCI-H460; 10^-4.0 Molar,82%
same,activity at 10 µM,NCI-H460; 10^-5.0 Molar,97%
same,activity at 1 µM,NCI-H460; 10^-6.0 Molar,100%
same,activity at 0.1 µM,NCI-H460; 10^-7.0 Molar,99%
same,activity,NCI-H522; 10^-3.0 Molar,-82%
same,activity at 100 µM,NCI-H522; 10^-4.0 Molar,47%
same,activity at 10 µM,NCI-H522; 10^-5.0 Molar,104%
same,activity at 1 µM,NCI-H522; 10^-6.0 Molar,102%
same,activity at 0.1 µM,NCI-H522; 10^-7.0 Molar,100%
same,activity,OVCAR-8; 10^-3.0 Molar,-49%
same,activity at 100 µM,OVCAR-8; 10^-4.0 Molar,81%
same,activity at 10 µM,OVCAR-8; 10^-5.0 Molar,108%
same,activity at 1 µM,OVCAR-8; 10^-6.0 Molar,106%
same,activity at 0.1 µM,OVCAR-8; 10^-7.0 Molar,102%
same,activity,SF-268; 10^-3.0 Molar,-58%
same,activity at 100 µM,SF-268; 10^-4.0 Molar,52%
same,activity at 10 µM,SF-268; 10^-5.0 Molar,93%
same,activity at 1 µM,SF-268; 10^-6.0 Molar,100%
same,activity at 0.1 µM,SF-268; 10^-7.0 Molar,98%
same,activity,SF-295; 10^-3.0 Molar,-95%
same,activity at 100 µM,SF-295; 10^-4.0 Molar,47%
same,activity at 10 µM,SF-295; 10^-5.0 Molar,100%
same,activity at 1 µM,SF-295; 10^-6.0 Molar,100%
same,activity at 0.1 µM,SF-295; 10^-7.0 Molar,104%
same,activity,SNB-19; 10^-3.0 Molar,-54%
same,activity at 100 µM,SNB-19; 10^-4.0 Molar,90%
same,activity at 10 µM,SNB-19; 10^-5.0 Molar,109%
same,activity at 1 µM,SNB-19; 10^-6.0 Molar,99%
same,activity at 0.1 µM,SNB-19; 10^-7.0 Molar,105%
same,activity,U251; 10^-3.0 Molar,-55%
same,activity at 100 µM,U251; 10^-4.0 Molar,54%
same,activity at 10 µM,U251; 10^-5.0 Molar,102%
same,activity at 1 µM,U251; 10^-6.0 Molar,111%
same,activity at 0.1 µM,U251; 10^-7.0 Molar,104%
same,activity,UACC-257; 10^-3.0 Molar,-77%
same,activity at 100 µM,UACC-257; 10^-4.0 Molar,75%
same,activity at 10 µM,UACC-257; 10^-5.0 Molar,96%
same,activity at 1 µM,UACC-257; 10^-6.0 Molar,102%
same,activity at 0.1 µM,UACC-257; 10^-7.0 Molar,102%
same,activity,UACC-62; 10^-3.0 Molar,-79%
same,activity at 100 µM,UACC-62; 10^-4.0 Molar,53%
same,activity at 10 µM,UACC-62; 10^-5.0 Molar,88%
same,activity at 1 µM,UACC-62; 10^-6.0 Molar,91%
same,activity at 0.1 µM,UACC-62; 10^-7.0 Molar,94%
same,activity,UO-31; 10^-3.0 Molar,-75%
same,activity at 100 µM,UO-31; 10^-4.0 Molar,63%
same,activity at 10 µM,UO-31; 10^-5.0 Molar,92%
same,activity at 1 µM,UO-31; 10^-6.0 Molar,99%
same,activity at 0.1 µM,UO-31; 10^-7.0 Molar,92%
